Several values for one entry are separate records, joined by “and”; a condition that tells them apart may be missing. Equal entries are not always repeated.
Assay: Solubility assessment as a function of HPβCD concentration
Assay type: physicochemical
Description: Solubility studies were performed by the addition of a known mass of 5(6)-methoxy-2-[[(4-methoxy-3,5-dimethyl-2-pyridinyl)-methyl]sulfinyl]-1H- benzimidazole and/or HPβCD to a given volume of solvent system. Solubilities were determined by observation, as the maximum concentration at which 5(6)-methoxy-2-[[(4-methoxy-3,5-dimethyl-2-pyridinyl)-methyl]sulfinyl]-1H- benzimidazole completely dissolved. Additionally, concentrations of 5(6)-methoxy-2-[[(4-methoxy-3,5-dimethyl-2-pyridinyl)-methyl]sulfinyl]-1H- benzimidazole and HPβCD at set molar ratios were solubilized in systems of high pH (adjusted as high as 12.2, with 1N NaOH), the pH was adjusted (using 2N HCl) in a stepwise downward manner until precipitation occurred.
The solubility of 5(6)-methoxy-2-[[(4-methoxy-3,5-dimethyl-2-pyridinyl)-methyl]sulfinyl]-1H- benzimidazole was assessed as a function of HPβCD concentration in water.
The procedure according to Example 86 was repeated except that water with a borate buffer (pH of 8) was employed.
The procedure according to Example 86 was repeated except that water with a phosphate buffer (pH of 11) was employed.

## COc1ccc2[nH]c([S+]([O-])Cc3ncc(C)c(OC)c3C)nc2c1 (stereo not drawn) [5(6)-methoxy-2-[[(4-methoxy-3,5-dimethyl-2-pyridinyl)-methyl]sulfinyl]-1H-benzimidazole]
Water with a borate buffer (pH of 8)
  dependence of solubility on HPβCD concentration: increase linearly as a function of HPβCD concentration
Water with a phosphate buffer (pH of 11)
  dependence of solubility on HPβCD concentration: increase linearly as a function of HPβCD concentration
water, read-out: aqueous solubility in water
  solubility: ~300 µg/mL and ~900 µM
